Data taken from US12064516B2, “Pharmaceutical formulations and uses thereof” (Aldeyra Therapeutics, Inc., priority 2020, dated 2024).
Where two headings read alike, the source gives them in different places.

Experiment: Pharmacokinetics of compound I-1 in the dog by intravenous, oral gavage and oral capsule routes
Assay type: in vivo, beagle dogs
Settings: for concentration at 0.083 h / concentration at 0.25 h / concentration at 0.5 h / concentration at 1 h / concentration at 2 h / concentration at 4 h / concentration at 8 h / concentration at 12 h / AUC(0-inf) / AUC(0-t) / C0 / clearance / half-life / Vd: male, beagle, dog, plasma; for concentration at 0.083 h / concentration at 0.25 h / concentration at 0.5 h / concentration at 1 h / concentration at 2 h / concentration at 4 h / concentration at 8 h / concentration at 12 h: read-out: Concentration at time point; for Vd: read-out: Vss
Experimental: A pharmacokinetic study was conducted to compare the bioavailability of capsule and suspension oral formulations vs. an intravenous formulations.
The standard curve was prepared from 1 to 2,000 ng/mL. QC samples were prepared at […]. Dilution QCs were prepared at 10-fold dilution. Deuterated (d6) I-1 (compound 1-7) was used as an internal standard. A 50 μL aliquot of sample was added to 150 μL of cold internal standard in acetonitrile to effect protein precipitation. The resulting supernatants were analyzed by LCMS. Diluted sample data was utilized only for over-the-curve results.
Briefly, 9 male non-naïve beagle dogs were assigned in groups of 3 to 3 dose groups. Group 1 was dosed 3 mg/kg by the intravenous route in a vehicle of 20% sulfobutylether-β-cyclodextrin (SBECD). Group 2 was dosed 10 mg/kg by the oral gavage route in a vehicle of 0.5% methylcellulose (MC). Group 3 was dosed with 100 mg capsules.
The I-1 100 mg capsules are manufactured as a non-sterile spray dried, granulated powder blend. The blend is then filled into capsules for oral delivery. The capsules are packaged in high-density polyethylene bottles. The quantitative composition of the I-1 100 mg capsule is presented above in Table B.
Procedure: (PO) gavage: formulations will be administered via a rubber oral gavage tube followed by a 10 mL flush with drinking water. (PO) tablet: tablets will be administered orally by placing the tablet in the back of the throat followed by a 10 mL flush with water.
Frequency: Pre-dose, 5, 15, 30 min, 1, 2, 4, 8, and 12 hrs post-dose (IV); pre-dose, 15, 30 min, 1, 2, 4, 8, and 12 hrs post-dose (PO by gavage and PO by capsule).
Blood collection: each blood sample will be collected from the dog's jugular vein or other accessible vein via direct venepuncture, placed into a pre-labeled tube containing K2EDTA and kept on ice until centrifugation.
Plasma preparation and storage: Certifuged at 4 C at 3,000× for 5 mm. Stored in a freezer until analysed.
Pharmacokinetics package PKSolver2.0™ has been validated against WinNonLin™ as a tool for non-GLP studies and was used to process the pharmacokinetic data.
For each route, the average data were processed with non-compartmental, one compartment, and two compartment models. The models were assessed for goodness of fit and the accuracy of the model to assess the biphasic data, with either a) no weighting, b) 1/concentration observed, or c) 1/concentration observed squared. 1/concentration predicted, and 1/concentration predicted squared weightings were also assessed for best fit. […] The zeros were averaged with the 71.5 value for a resulting average of 23.8. For the In Group 2 (PO Gavage) subject 3 experienced 30 mL of emesis, so the dose assigned to that subject was 7.46. In all cases, the subjects were modelled individually, and the individual PK parameters were averaged to provide final parameters.
For group 1 (intravenous) the final model selected was a two compartment model with 1/concentration observed squared weighting.
For group 2 (oral gavage) the final model was a two compartment extravascular model with 1/concentration predicted squared weighting.
For group 3 (oral capsule) the final model was a one compartment extravascular model with a lag time and no weighting. […] The body weight of each animal was used to assign a mg/kg dose to each individual. Subject 1 was dosed at 7.69 mg/kg. Subject 2 was 6.94 mg/kg, and Subject 3 was 6.99 mg/kg.

[1] = iv, 3 mg/kg, Group 1: IV 3 mg/kg, Average
[2] = iv, 3 mg/kg, Group 1: IV 3 mg/kg, Subject 1
[3] = iv, 3 mg/kg, Group 1: IV 3 mg/kg, Subject 2
[4] = iv, 3 mg/kg, Group 1: IV 3 mg/kg, Subject 3
[5] = iv, 3 mg/kg, Intravenous - 3 mg/kg, Average
[6] = iv, 3 mg/kg, Intravenous - 3 mg/kg, Subj1
[7] = iv, 3 mg/kg, Intravenous - 3 mg/kg, Subj2
[8] = iv, 3 mg/kg, Intravenous - 3 mg/kg, Subj3
[9] = oral, 7 mg/kg, Group 3: PO Capsule 7 mg/kg, Subject 1
[10] = oral, 7 mg/kg, Group 3: PO Capsule 7 mg/kg, Subject 3
[11] = oral, 7 mg/kg, Group 3: PO Capsule 7 mg/kg, Average
[12] = oral, 7 mg/kg, Group 3: PO Capsule 7 mg/kg, Subject 2

CC(C)(O)c1nc2ccccc2cc1N [I-1]
AUC/Dose (100 mg Capsule, average dose 7.2 mg/kg, Average): 1139 ng·h/mL/mg/kg | AUC/Dose (100 mg Capsule, average dose 7.2 mg/kg, Subj1): 955 ng·h/mL/mg/kg | AUC/Dose (100 mg Capsule, average dose 7.2 mg/kg, Subj2): 809 ng·h/mL/mg/kg | AUC/Dose (100 mg Capsule, average dose 7.2 mg/kg, Subj3): 1653 ng·h/mL/mg/kg | AUC/Dose (Intravenous - 3 mg/kg, Average): 1379 | AUC/Dose (Intravenous - 3 mg/kg, Subj1): 1361 | AUC/Dose (Intravenous - 3 mg/kg, Subj2): 1520 | AUC/Dose (Intravenous - 3 mg/kg, Subj3): 1256 | AUC/Dose (Oral Gavage 0.5% Methylcellulose 10 mg/kg, Average): 1038 ng·h/mL/mg/kg | AUC/Dose (Oral Gavage 0.5% Methylcellulose 10 mg/kg, Subj1): 1121 ng·h/mL/mg/kg | AUC/Dose (Oral Gavage 0.5% Methylcellulose 10 mg/kg, Subj2): 1010 ng·h/mL/mg/kg | AUC/Dose (Oral Gavage 0.5% Methylcellulose 10 mg/kg, Subj3 (dose assigned 7.46 after emesis)): 982 ng·h/mL/mg/kg | concentration at 0.083 h [1]: 5080 ng/mL | concentration at 0.083 h [2]: 4910 ng/mL | concentration at 0.083 h [3]: 4900 ng/mL | concentration at 0.083 h [4]: 5430 ng/mL | concentration at 0.25 h [1]: 2410 ng/mL | concentration at 0.25 h [2]: 2780 ng/mL | concentration at 0.25 h [3]: 2300 ng/mL | concentration at 0.25 h [4]: 2150 ng/mL | concentration at 0.5 h [1]: 1660 ng/mL | concentration at 0.5 h [2]: 1720 ng/mL | concentration at 0.5 h [3]: 1700 ng/mL | concentration at 0.5 h [4]: 1570 ng/mL | concentration at 1 h [1]: 951 ng/mL | concentration at 1 h [2]: 857 ng/mL | concentration at 1 h [3]: 908 ng/mL | concentration at 1 h [4]: 1090 ng/mL | concentration at 2 h [1]: 548 ng/mL | concentration at 2 h [2]: 436 ng/mL | concentration at 2 h [3]: 766 ng/mL | concentration at 2 h [4]: 443 ng/mL | concentration at 4 h [1]: 250 ng/mL | concentration at 4 h [2]: 259 ng/mL | concentration at 4 h [3]: 287 ng/mL | concentration at 4 h [4]: 203 ng/mL | concentration at 8 h [1]: 42.5 ng/mL | concentration at 8 h [2]: 49 ng/mL | concentration at 8 h [3]: 55.4 ng/mL | concentration at 8 h [4]: 23.1 ng/mL | concentration at 12 h [1]: 15.5 ng/mL | concentration at 12 h [2]: 23.9 ng/mL | concentration at 12 h [3]: 17 ng/mL | concentration at 12 h [4]: 5.5 ng/mL | AUC(0-inf) [5]: 4140 ng·h/mL | AUC(0-t) [5]: 4100 ng·h/mL | C0 [5]: 6720 ng/mL | clearance [5]: 12.2 mL/min/kg | half-life [5]: 1.82 h | Vd [5]: 1.39 L/kg | AUC(0-inf) [6]: 4080 ng·h/mL | AUC(0-t) [6]: 4030 ng·h/mL | C0 [6]: 5600 ng/mL | clearance [6]: 12.2 mL/min/kg | half-life [6]: 2.2 h | Vd [6]: 1.51 L/kg | AUC(0-inf) [7]: 4560 ng·h/mL | AUC(0-t) [7]: 4520 ng·h/mL | C0 [7]: 6670 ng/mL | clearance [7]: 11 mL/min/kg | half-life [7]: 1.82 h | Vd [7]: 1.4 L/kg | AUC(0-inf) [8]: 3770 ng·h/mL | AUC(0-t) [8]: 3760 ng·h/mL | C0 [8]: 7890 ng/mL | clearance [8]: 13.3 mL/min/kg | half-life [8]: 1.44 h | Vd [8]: 1.25 L/kg | concentration at 0.25 h [9]: 0 ng/mL | concentration at 0.25 h [10]: 0 ng/mL | concentration at 0.5 h [11]: 97.4 ng/mL | concentration at 0.5 h [9]: 1.1 ng/mL | concentration at 0.5 h [12]: 290 ng/mL | concentration at 0.5 h [10]: 1 ng/mL | concentration at 1 h [11]: 137 ng/mL | concentration at 1 h [9]: 24 ng/mL | concentration at 1 h [12]: 254 ng/mL | concentration at 1 h [10]: 134 ng/mL | concentration at 2 h [11]: 2350 ng/mL | concentration at 2 h [9]: 1740 ng/mL | concentration at 2 h [12]: 1320 ng/mL | concentration at 2 h [10]: 3990 ng/mL | concentration at 4 h [11]: 985 ng/mL
